Assay results from PubChem BioAssay (NCI).
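1) Cells in 96-well plates. 2) Compound, 48 h, 5 concentrations. 3) Linear interpolation between surrounding doses. 4) Unreached endpoint = highest concentration. TGI: concentration producing complete growth inhibition.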

Assays:
Test in all cases: DTP human tumour cell line panel, 48 h
RXF 393 renal = tested on: RXF 393 renal
HCC-2998 colon = tested on: HCC-2998 colon
SF-295 CNS = tested on: SF-295 CNS
HOP-92 NSCLC = tested on: HOP-92 NSCLC
A498 renal = tested on: A498 renal
T-47D breast = tested on: T-47D breast
SNB-19 CNS = tested on: SNB-19 CNS
OVCAR-3 ovarian = tested on: OVCAR-3 ovarian
OVCAR-4 ovarian = tested on: OVCAR-4 ovarian
HOP-62 NSCLC = tested on: HOP-62 NSCLC
NCI-H226 lung = tested on: NCI-H226 lung

SMILES: CN(C(=O)C12C3C4C1C1C2C3C41C(=O)O)C(C)(C)C (stereo not given)
- TGI (RXF 393 renal): > 100 µM
- TGI (HCC-2998 colon): > 100 µM
- TGI (SF-295 CNS): > 100 µM
- TGI (HOP-92 NSCLC): > 100 µM
- TGI (A498 renal): > 100 µM
- TGI (T-47D breast): > 100 µM
- TGI (SNB-19 CNS): > 100 µM
- TGI (OVCAR-3 ovarian): > 100 µM
- TGI (OVCAR-4 ovarian): > 100 µM
- TGI (HOP-62 NSCLC): > 100 µM

SMILES: COC1=C(OC)C(=O)c2cc(SC)c(=O)c(SC)cc2C1=O
- TGI (RXF 393 renal): 16.8 µM
- TGI (HCC-2998 colon): > 100 µM
- TGI (NCI-H226 lung): 28.4 µM
- TGI (SF-295 CNS): 29.2 µM
- TGI (HOP-92 NSCLC): 48.4 µM
- TGI (A498 renal): 66.3 µM
- TGI (SNB-19 CNS): 60.7 µM
- TGI (OVCAR-3 ovarian): 23.4 µM
- TGI (OVCAR-4 ovarian): 24.8 µM
- TGI (HOP-62 NSCLC): 31.2 µM

SMILES: C(=C\c1ccccc1)/Cn1nc(-c2ccccc2)nc1-c1cnccn1
- TGI (RXF 393 renal): > 100 µM
- TGI (HCC-2998 colon): > 100 µM
- TGI (SF-295 CNS): > 100 µM
- TGI (HOP-92 NSCLC): > 100 µM
- TGI (T-47D breast): > 100 µM
- TGI (SNB-19 CNS): > 100 µM
- TGI (OVCAR-3 ovarian): > 100 µM
- TGI (OVCAR-4 ovarian): > 100 µM
- TGI (HOP-62 NSCLC): > 100 µM

SMILES: COc1cc2c(cc1C)NC(=O)/C2=C\c1cccnc1
- TGI (RXF 393 renal): 43.1 µM
- TGI (HCC-2998 colon): 21.6 µM
- TGI (SF-295 CNS): 35 µM
- TGI (HOP-92 NSCLC): 59.5 µM
- TGI (A498 renal): 26.1 µM
- TGI (T-47D breast): 11.7 µM
- TGI (SNB-19 CNS): 40.4 µM
- TGI (OVCAR-3 ovarian): 33.6 µM
- TGI (OVCAR-4 ovarian): 40.4 µM
- TGI (HOP-62 NSCLC): 51.9 µM

SMILES: COc1cccc2c1C(=O)c1c(O)c3c(c(O)c1C2=O)CC(O)(C(C)=O)CC3OC1CC([N+](C)(C)C)C(O)C(C)O1 (stereo not given)
- TGI (RXF 393 renal): > 100 µM
- TGI (HCC-2998 colon): > 100 µM
- TGI (NCI-H226 lung): > 100 µM
- TGI (SF-295 CNS): > 100 µM
- TGI (HOP-92 NSCLC): > 100 µM
- TGI (A498 renal): > 100 µM
- TGI (SNB-19 CNS): > 100 µM
- TGI (OVCAR-3 ovarian): > 100 µM
- TGI (OVCAR-4 ovarian): > 100 µM
- TGI (HOP-62 NSCLC): > 100 µM

SMILES: COC(=O)/C=C/COCC1C2CCC(=O)C21 (stereo not given)
- TGI (RXF 393 renal): > 100 µM
- TGI (HCC-2998 colon): > 100 µM
- TGI (NCI-H226 lung): > 100 µM
- TGI (SF-295 CNS): > 100 µM
- TGI (HOP-92 NSCLC): > 100 µM
- TGI (SNB-19 CNS): > 100 µM
- TGI (OVCAR-3 ovarian): > 100 µM
- TGI (OVCAR-4 ovarian): > 100 µM
- TGI (HOP-62 NSCLC): > 100 µM

SMILES: CCOC(=O)c1nc2cc(F)c(F)cc2nc1NCc1cc(OC)c(OC)c(OC)c1
- TGI (RXF 393 renal): > 100 µM
- TGI (SF-295 CNS): > 100 µM
- TGI (HOP-92 NSCLC): > 100 µM
- TGI (A498 renal): > 100 µM
- TGI (T-47D breast): > 100 µM
- TGI (SNB-19 CNS): > 100 µM
- TGI (OVCAR-3 ovarian): > 100 µM
- TGI (OVCAR-4 ovarian): > 100 µM
- TGI (HOP-62 NSCLC): > 100 µM

SMILES: O=S(=O)(O)c1cc(S(=O)(=O)O)c2c(N=Nc3ccccc3)c(O)ccc2c1
- TGI (RXF 393 renal): > 100 µM
- TGI (NCI-H226 lung): > 100 µM
- TGI (SF-295 CNS): > 100 µM
- TGI (HOP-92 NSCLC): > 100 µM
- TGI (A498 renal): > 100 µM
- TGI (T-47D breast): > 100 µM
- TGI (SNB-19 CNS): > 100 µM
- TGI (OVCAR-3 ovarian): > 100 µM
- TGI (OVCAR-4 ovarian): > 100 µM
- TGI (HOP-62 NSCLC): > 100 µM

SMILES: COc1nc(N)nc2c1n(C)c[n+]2C
- TGI (RXF 393 renal): > 100 µM
- TGI (NCI-H226 lung): > 100 µM
- TGI (SF-295 CNS): > 100 µM
- TGI (HOP-92 NSCLC): > 100 µM
- TGI (A498 renal): > 100 µM
- TGI (T-47D breast): > 100 µM
- TGI (SNB-19 CNS): > 100 µM
- TGI (OVCAR-3 ovarian): > 100 µM
- TGI (HOP-62 NSCLC): > 100 µM

SMILES: CCCCC1=C(C(=O)N2CCOCC2)C2(OCCO2)C1Cl (stereo not given)
- TGI (RXF 393 renal): 81.6 µM
- TGI (NCI-H226 lung): > 100 µM
- TGI (SF-295 CNS): > 100 µM
- TGI (HOP-92 NSCLC): > 100 µM
- TGI (A498 renal): > 100 µM
- TGI (T-47D breast): > 100 µM
- TGI (SNB-19 CNS): > 100 µM
- TGI (OVCAR-4 ovarian): > 100 µM
- TGI (HOP-62 NSCLC): > 100 µM

SMILES: [N-]=[N+]=NC1(c2ccccc2)C(=O)c2cccc3c4ccccc4n(c23)C1=O (stereo not given)
- TGI (RXF 393 renal): > 100 µM
- TGI (HCC-2998 colon): > 100 µM
- TGI (NCI-H226 lung): > 100 µM
- TGI (SF-295 CNS): > 100 µM
- TGI (A498 renal): > 100 µM
- TGI (T-47D breast): > 100 µM
- TGI (SNB-19 CNS): > 100 µM
- TGI (OVCAR-3 ovarian): > 100 µM
- TGI (OVCAR-4 ovarian): > 100 µM
- TGI (HOP-62 NSCLC): > 100 µM

SMILES: CCOC(=O)N(C)CCC1CC=CC(=O)C1c1cccc(OC)c1OC (stereo not given)
- TGI (RXF 393 renal): 27.5 µM
- TGI (HCC-2998 colon): 25.8 µM
- TGI (SF-295 CNS): 98.8 µM
- TGI (HOP-92 NSCLC): > 100 µM
- TGI (A498 renal): > 100 µM
- TGI (T-47D breast): 77.1 µM
- TGI (SNB-19 CNS): 85.6 µM
- TGI (OVCAR-3 ovarian): 38.8 µM
- TGI (OVCAR-4 ovarian): > 100 µM
- TGI (HOP-62 NSCLC): > 100 µM

SMILES: COc1ccc(OC)c2sc(N3C(=O)/C(=C/c4ccc(N(C)C)cc4)N=C3c3ccccc3)nc12
- TGI (HCC-2998 colon): > 100 µM
- TGI (SF-295 CNS): > 100 µM
- TGI (HOP-92 NSCLC): > 100 µM
- TGI (A498 renal): > 100 µM
- TGI (T-47D breast): > 100 µM
- TGI (SNB-19 CNS): > 100 µM
- TGI (OVCAR-3 ovarian): > 100 µM
- TGI (OVCAR-4 ovarian): > 100 µM
- TGI (HOP-62 NSCLC): > 100 µM

SMILES: O=[N+]([O-])/C(C(Cl)=C(Cl)Cl)=C(\Nc1cccc2cccnc12)Sc1ccccc1
- TGI (HCC-2998 colon): > 100 µM
- TGI (NCI-H226 lung): 86.6 µM
- TGI (SF-295 CNS): 51.4 µM
- TGI (A498 renal): 69.4 µM
- TGI (T-47D breast): 38.4 µM
- TGI (SNB-19 CNS): > 100 µM
- TGI (OVCAR-3 ovarian): 28.3 µM
- TGI (OVCAR-4 ovarian): 51.4 µM
- TGI (HOP-62 NSCLC): 80.7 µM

SMILES: Nc1nc([O-])c([I+]c2ccccc2)c(=O)[nH]1
- TGI (RXF 393 renal): > 100 µM
- TGI (HCC-2998 colon): > 100 µM
- TGI (NCI-H226 lung): > 100 µM
- TGI (SF-295 CNS): > 100 µM
- TGI (HOP-92 NSCLC): > 100 µM
- TGI (A498 renal): > 100 µM
- TGI (SNB-19 CNS): > 100 µM
- TGI (OVCAR-3 ovarian): > 100 µM
- TGI (OVCAR-4 ovarian): > 100 µM
- TGI (HOP-62 NSCLC): > 100 µM

SMILES: NS(=O)(=O)c1ccc(NC(=S)/N=C/c2c(O)c3ccccc3[nH]c2=O)cc1
- TGI (RXF 393 renal): > 100 µM
- TGI (HCC-2998 colon): > 100 µM
- TGI (NCI-H226 lung): > 100 µM
- TGI (SF-295 CNS): > 100 µM
- TGI (HOP-92 NSCLC): > 100 µM
- TGI (T-47D breast): > 100 µM
- TGI (SNB-19 CNS): > 100 µM
- TGI (OVCAR-3 ovarian): > 100 µM
- TGI (OVCAR-4 ovarian): > 100 µM
- TGI (HOP-62 NSCLC): > 100 µM

SMILES: COC(=O)CC(SCCO)SCCO
- TGI (RXF 393 renal): > 100 µM
- TGI (HCC-2998 colon): > 100 µM
- TGI (NCI-H226 lung): > 100 µM
- TGI (SF-295 CNS): > 100 µM
- TGI (HOP-92 NSCLC): > 100 µM
- TGI (A498 renal): > 100 µM
- TGI (SNB-19 CNS): > 100 µM
- TGI (OVCAR-3 ovarian): > 100 µM
- TGI (OVCAR-4 ovarian): > 100 µM
- TGI (HOP-62 NSCLC): > 100 µM

SMILES: COC(=O)/N=[N+](\[O-])C(c1ccc(Cl)cc1)c1ccc(Cl)cc1
- TGI (RXF 393 renal): 84.1 µM
- TGI (HCC-2998 colon): > 100 µM
- TGI (NCI-H226 lung): 89.6 µM
- TGI (A498 renal): > 100 µM
- TGI (T-47D breast): 91.9 µM
- TGI (SNB-19 CNS): > 100 µM
- TGI (OVCAR-3 ovarian): > 100 µM
- TGI (OVCAR-4 ovarian): > 100 µM

SMILES: CCOC(=O)Nn1cnnc1Cc1ccccc1
- TGI (HCC-2998 colon): > 100 µM
- TGI (NCI-H226 lung): > 100 µM
- TGI (SF-295 CNS): > 100 µM
- TGI (HOP-92 NSCLC): > 100 µM
- TGI (A498 renal): > 100 µM
- TGI (T-47D breast): > 100 µM
- TGI (SNB-19 CNS): > 100 µM
- TGI (OVCAR-3 ovarian): > 100 µM
- TGI (OVCAR-4 ovarian): > 100 µM
- TGI (HOP-62 NSCLC): > 100 µM

SMILES: O=C1c2scc(-c3ccc(F)cc3)c2-n2cccc21
- TGI (RXF 393 renal): > 100 µM
- TGI (HCC-2998 colon): 91.1 µM
- TGI (NCI-H226 lung): > 100 µM
- TGI (SF-295 CNS): > 100 µM
- TGI (A498 renal): 3.1 µM
- TGI (T-47D breast): > 100 µM
- TGI (SNB-19 CNS): > 100 µM
- TGI (OVCAR-3 ovarian): > 100 µM
- TGI (OVCAR-4 ovarian): > 100 µM
- TGI (HOP-62 NSCLC): 64.4 µM

SMILES: CCOC(=O)CCN1C(=O)c2ccc(NC(=O)C(=O)O)cc2S1(=O)=O
- TGI (HCC-2998 colon): > 100 µM
- TGI (NCI-H226 lung): > 100 µM
- TGI (SF-295 CNS): > 100 µM
- TGI (HOP-92 NSCLC): > 100 µM
- TGI (A498 renal): > 100 µM
- TGI (SNB-19 CNS): > 100 µM
- TGI (OVCAR-3 ovarian): > 100 µM
- TGI (OVCAR-4 ovarian): > 100 µM
- TGI (HOP-62 NSCLC): > 100 µM
